Experiments:
chickweed = experiment: Test E chickweed; format: in vivo, Stellaria media; conditions: Postemergence; for Plant response rating, Chickweed: 0 to 100 scale
Description: (§1) Compounds evaluated in this test were formulated in a non-phytotoxic solvent mixture which included a surfactant and applied to plants that were in the 1- to 4-leaf stage (postemergence application). A mixture of sandy loam soil and greenhouse potting mix in a 60:40 ratio was used for the postemergence test.
(§2) Plantings of these crops and weed species were adjusted to produce plants of appropriate size for the postemergence test. All plant species were grown using normal greenhouse practices. Crop and weed species include annual bluegrass (Poa annua), blackgrass (Alopecurus myosuroides), black nightshade (Solanum nigra), chickweed (Stellaria media), common poppy (Papaver rhoeas), deadnettle (Lamium amplexicaule), downy brome (Bromus tectorum), field violet (Viola arvensis), galium (Galium aparine), green foxtail (Setaria viridis), Italian ryegrass (Lolium multiflorum), jointed goatgrass (Aegilops cylindrica), kochia (Kochia scoparia), lambsquarters (Chenopodium album), littleseed canarygrass (Phalaris minor), rape (Brassica napus), redroot pigweed (Amaranthus retroflexus), Russian thistle (Salsola kali), scentless chamomile (Matricaria inodora), spring barley (Hordeum vulgare), sugar beet (Beta vulgaris), sunflower (Helianthus annuus), ivyleaf speedwell (Veronica hederaefolia), spring wheat (Triticum aestivum), winter wheat (Triticum aestivum), wild buckwheat (Polygonum convolvulus), wild mustard (Sinapis arvensis), wild oat (Avena fatua), windgrass (Apera spica-venti) and winter barley (Hordeum vulgare).
(§3) Treated plants and untreated controls were maintained in a greenhouse for approximately 21 to 28 days, after which all treated plants were compared to untreated controls and visually evaluated. […] A dash response (-) means no test result.

downy brome [1] = experiment: Test E downy brome; format: in vivo, Bromus tectorum; conditions: Preemergence
sandbur = experiment: Test D sandbur; format: in vivo, Cenchrus echinatus; conditions: Postemergence, 0 to 100 scale; for Sandbur plant response rating: 0 no injury, 100 complete control
wild mustard = experiment: Test E wild mustard; format: in vivo, Sinapis arvensis; conditions: Preemergence
tall mallow = experiment: Test D tall mallow; format: in vivo, Malva sylvestris; conditions: Postemergence, 0 to 100 scale; for Tall Mallow plant response rating: 0 no injury, 100 complete control
guineagrass = experiment: Test D guineagrass; format: in vivo, Panicum maximum; conditions: Postemergence, 0 to 100 scale
Russian thistle = experiment: Test E Russian thistle; format: in vivo, Salsola kali; conditions: Postemergence; for Plant response rating, Russian thistle: 0 to 100 scale
In short: (§4)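 Compound formulated with surfactant in a non-phytotoxic solvent (postemergence: young 1- to 4-leaf plants); held in greenhouse approx. 21–28 days; visual assessment against untreated plants.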

common ragweed = experiment: Test D common ragweed; format: in vivo, Ambrosia elatior; conditions: Postemergence, 0 to 100 scale
kochia [2] = experiment: Test E kochia; format: in vivo, Kochia scoparia; conditions: Postemergence; for Plant response rating, Kochia: 0 to 100 scale
In short: as §4

Johnson grass = experiment: Test D Johnson grass; format: in vivo, Sorghum halepense; conditions: Postemergence, 0 to 100 scale
annual bluegrass = experiment: Test E annual bluegrass; format: in vivo, Poa annua; conditions: Postemergence; for Plant response rating, Annual bluegras: 0 to 100 scale
Description: as §1, §2, §3

sunflower = experiment: Test E sunflower; format: in vivo, Helianthus annuus; conditions: Postemergence; for Plant response rating, Sunflower: 0 to 100 scale
In short: as §4

lambsquarters [3] = experiment: Test E lambsquarters; format: in vivo, Chenopodium album; conditions: Postemergence; for Plant response rating Lambsquarters: 0 to 100 scale
Description: as §1, §2, §3

lambsquarters [4] = experiment: Test E lambsquarters; format: in vivo, Chenopodium album; conditions: Preemergence
downy brome [5] = experiment: Test E downy brome; format: in vivo, Bromus tectorum; conditions: Postemergence; for Plant response rating, Downy brome: 0 to 100 scale
Description: as §1, §2, §3

large crabgrass = experiment: Test D large crabgrass; format: in vivo, Digitaria sanguinalis; conditions: Postemergence, 0 to 100 scale
wild oat = experiment: Test E wild oat; format: in vivo, Avena fatua; conditions: Postemergence; for Plant response rating, Wild oat: 0 to 100 scale
In short: as §4

kochia [6] = experiment: Test E kochia; format: in vivo, Kochia scoparia; conditions: Preemergence
field violet = experiment: Test E field violet; format: in vivo, Viola arvensis; conditions: Postemergence; for Plant response rating, Field violet: 0 to 100 scale
In short: as §4

galium = experiment: Test E galium; format: in vivo, Galium aparine; conditions: Postemergence; for Plant response rating, Galium: 0 to 100 scale
In short: as §4

scentless chamomile = experiment: Test E scentless chamomile; format: in vivo, Matricaria inodora; conditions: Preemergence
Alexandergrass = experiment: Test D Alexandergrass; format: in vivo, Brachiaria plantaginea; conditions: Postemergence
Spanishneedles = experiment: Test D Spanishneedles; format: in vivo, Bidens bipinnata; conditions: Postemergence, 0 to 100 scale; for Spanishneedles plant response rating: 0 no injury, 100 complete control
[7] = Rate 500 g/ha, 0 no effect, 100 complete control
[8] = Rate 250 g/ha, 0 to 100 scale where 0 is no effect and 100 is complete control
[9] = Rate 125 g/ha, 0 to 100 scale (0 no effect, 100 complete control)
[10] = Rate 500 g/ha, 0 to 100 scale where 0 is no effect and 100 is complete control
[11] = Rate 64 g/ha, 0 no injury, 100 complete control
[12] = Rate 125 g/ha, 0 no injury, 100 complete control
[13] = Rate 64 g/ha, 0 to 100 scale, 0 no injury, 100 complete control
[14] = Rate 125 g/ha, 0 to 100 scale, 0 no injury, 100 complete control
[15] = Rate 500 g/ha, 0 to 100 scale (0 no injury, 100 complete control)

C=CCn1c(=O)on(C(=O)N(c2ccc(F)cc2)C(C)C)c1=O [Compound 146]
15: Galium plant response rating (galium; [8]) | Plant response rating, Scentless chamo (scentless chamomile; [9])
50: Plant response rating, Tall Mallow (tall mallow; Rate 500 g/ha) | Plant response rating Johnsongrass (Johnson grass; Rate 250 g/ha) | Plant response rating, Sunflower (sunflower; [7]) | Plant response rating Lambsquarters (lambsquarters [3]; Rate 62 g/ha) | Plant response rating Lambsquarters (lambsquarters [3]; [7]) | Plant response rating Large crabgrass (large crabgrass; Rate 250 g/ha) | Kochia plant response rating (0 to 100 scale) (kochia [6]; Rate 250 g/ha) | Plant response rating, Field violet (field violet; Rate 62 g/ha) | Plant response rating, Galium (galium; Rate 62 g/ha)
85: Plant response rating, Sandbur (sandbur; Rate 250 g/ha) | Plant response rating, Annual bluegras (annual bluegrass; Rate 62 g/ha)
20: Plant response rating, Russian thistle (Russian thistle; Rate 62 g/ha) | Plant response rating Johnsongrass (Johnson grass; [11]) | Plant response rating Lambsquarters (lambsquarters [3]; Rate 125 g/ha) | Plant response rating Large crabgrass (large crabgrass; [11]) | Plant response rating Large crabgrass (large crabgrass; [12]) | Plant response rating, Wild oat (wild oat; Rate 62 g/ha) | Plant response rating, Alexandergrass (Alexandergrass; [14]) | Plant response rating, Spanishneedles (Spanishneedles; Rate 500 g/ha)
95: Wild mustard plant response rating (0 to 100 scale) (wild mustard; Rate 250 g/ha)
75: Plant response rating, Kochia (kochia [6]; [10])
0: Plant response rating, Chickweed (chickweed; Rate 125 g/ha) | Chickweed plant response rating (chickweed; [8]) | Downy brome plant response rating (0 to 100 scale) (downy brome [1]; Rate 250 g/ha) | Sandbur plant response rating (sandbur; Rate 64 g/ha) | Tall Mallow plant response rating (tall mallow; Rate 64 g/ha) | Tall Mallow plant response rating (tall mallow; Rate 125 g/ha) | Plant response rating, Tall Mallow (tall mallow; Rate 250 g/ha) | Plant response rating, Russian thistle (Russian thistle; Rate 125 g/ha) | Plant response rating, Russian thistle (Russian thistle; [7]) | Russian thistle plant response rating (Russian thistle; [8]) | Plant response rating, C. ragweed (common ragweed; [11]) | Plant response rating, C. ragweed (common ragweed; [12]) | Plant response rating, Sunflower (sunflower; Rate 62 g/ha) | Downy brome plant response rating (downy brome [5]; [8]) | Wild oat plant response rating (wild oat; [8]) | Plant response rating, Kochia (kochia [6]; [9]) | Plant response rating, Field violet (field violet; Rate 125 g/ha) | Field violet plant response rating (field violet; [8]) | Plant response rating, Galium (galium; Rate 125 g/ha)
30: Plant response rating, Chickweed (chickweed; Rate 62 g/ha) | Plant response rating, Chickweed (chickweed; [7]) | Plant response rating, C. ragweed (common ragweed; Rate 250 g/ha) | Plant response rating, Kochia (kochia [2]; Rate 62 g/ha)
65: Plant response rating Johnsongrass (Johnson grass; Rate 500 g/ha) | Plant response rating, Annual bluegras (annual bluegrass; [7]) | Plant response rating Large crabgrass (large crabgrass; Rate 500 g/ha) | Plant response rating, Alexandergrass (Alexandergrass; [15]) | Plant response rating, Alexandergrass (Alexandergrass; Rate 500 g/ha, 0 to 100 scale)
80: Plant response rating, Sandbur (sandbur; Rate 500 g/ha) | Plant response rating, Scentless chamo (scentless chamomile; [10])
100: Plant response rating, Wild mustard (wild mustard; [10]) | Plant response rating Lambsquarters (lambsquarters [4]; [9]) | Lambsquarters plant response rating (0 to 100 scale) (lambsquarters [4]; Rate 250 g/ha) | Plant response rating Lambsquarters (lambsquarters [4]; [10]) | Scentless chamo plant response rating (0 to 100 scale) (scentless chamomile; Rate 250 g/ha)
5: Plant response rating, Downy brome (downy brome [5]; [7]) | Plant response rating, Wild oat (wild oat; Rate 125 g/ha)
40: Plant response rating, C. ragweed (common ragweed; Rate 500 g/ha) | Plant response rating, Kochia (kochia [2]; [7]) | Plant response rating, Sunflower (sunflower; Rate 125 g/ha) | Sunflower plant response rating (sunflower; [8]) | Plant response rating, Alexandergrass (Alexandergrass; Rate 250 g/ha, 0 to 100 scale)
55: Plant response rating, Downy brome (downy brome [5]; Rate 62 g/ha)
60: Plant response rating, Downy brome (downy brome [1]; [9]) | Plant response rating, Downy brome (downy brome [1]; [10]) | Plant response rating, Wild mustard (wild mustard; [9]) | Plant response rating, Guineagrass (guineagrass; Rate 500 g/ha) | Plant response rating, Galium (galium; [7])
10: Plant response rating, Guineagrass (guineagrass; [11]) | Plant response rating, Guineagrass (guineagrass; [12]) | Plant response rating, Kochia (kochia [2]; Rate 125 g/ha) | Kochia plant response rating (kochia [2]; [8]) | Plant response rating, Annual bluegras (annual bluegrass; Rate 125 g/ha) | Annual bluegras plant response rating (annual bluegrass; [8]) | Lambsquarters plant response rating (lambsquarters [3]; [8]) | Plant response rating, Downy brome (downy brome [5]; Rate 125 g/ha) | Plant response rating, Wild oat (wild oat; [7]) | Plant response rating, Field violet (field violet; [7]) | Plant response rating, Alexandergrass (Alexandergrass; [13]) | Spanishneedles plant response rating (Spanishneedles; Rate 64 g/ha) | Spanishneedles plant response rating (Spanishneedles; Rate 125 g/ha) | Plant response rating, Spanishneedles (Spanishneedles; Rate 250 g/ha)
35: Plant response rating, Guineagrass (guineagrass; Rate 250 g/ha) | Plant response rating Johnsongrass (Johnson grass; [12])

CC(C)N(C(=O)n1oc(=O)n(C2CC2)c1=O)c1ccc(F)cc1F [Compound 299]
20: Guineagrass plant response rating (guineagrass; [11]) | Plant response rating, Spanishneedles (Spanishneedles; Rate 250 g/ha)
0: Plant response rating, Guineagrass (guineagrass; [11]) | Plant response rating Johnsongrass (Johnson grass; [11]) | Spanishneedles plant response rating (Spanishneedles; Rate 64 g/ha) | Spanishneedles plant response rating (Spanishneedles; Rate 125 g/ha)
80: Plant response rating, Guineagrass (guineagrass; [12])
100: Sandbur plant response rating (sandbur; Rate 125 g/ha) | Plant response rating, Sandbur (sandbur; Rate 250 g/ha) | Plant response rating, Sandbur (sandbur; Rate 500 g/ha) | Plant response rating, Tall Mallow (tall mallow; Rate 500 g/ha) | Plant response rating, Guineagrass (guineagrass; Rate 250 g/ha) | Plant response rating, Guineagrass (guineagrass; Rate 500 g/ha) | Plant response rating, C. ragweed (common ragweed; [11]) | Plant response rating, C. ragweed (common ragweed; Rate 250 g/ha) | Plant response rating, C. ragweed (common ragweed; Rate 500 g/ha) | Plant response rating Johnsongrass (Johnson grass; Rate 250 g/ha) | Plant response rating Johnsongrass (Johnson grass; Rate 500 g/ha) | Plant response rating Large crabgrass (large crabgrass; [11]) | Plant response rating Large crabgrass (large crabgrass; [12]) | Plant response rating Large crabgrass (large crabgrass; Rate 250 g/ha) | Plant response rating Large crabgrass (large crabgrass; Rate 500 g/ha) | Plant response rating, Alexandergrass (Alexandergrass; [14]) | Plant response rating, Alexandergrass (Alexandergrass; Rate 250 g/ha, 0 to 100 scale) | Plant response rating, Alexandergrass (Alexandergrass; [15]) | Plant response rating, Alexandergrass (Alexandergrass; Rate 500 g/ha, 0 to 100 scale) | Plant response rating, Spanishneedles (Spanishneedles; Rate 500 g/ha)
70: Plant response rating, Tall Mallow (tall mallow; Rate 250 g/ha)
50: Plant response rating, C. ragweed (common ragweed; [12])
60: Plant response rating Johnsongrass (Johnson grass; [12])
30: Tall Mallow plant response rating (tall mallow; Rate 64 g/ha)
90: Sandbur plant response rating (sandbur; Rate 64 g/ha) | Tall Mallow plant response rating (tall mallow; Rate 125 g/ha) | Plant response rating, Alexandergrass (Alexandergrass; [13])

From patent US6737383B1, “Herbicidal oxadiazolidines” (priority 1999, dated 2004)
